From paper PMC8071358, “Targeting of the Essential acpP, ftsZ, and rne Genes in Carbapenem-Resistant Acinetobacter baumannii by Antisense PNA Precision Antibacterials” (Biomedicines, 2021)

Tests used:
CRAB strain AC5 = test: BPP-PNA MIC, broth microdilution; format: cell-based, Acinetobacter baumannii; settings: MHB without cation (Oxoid); 37 °C, 18 h
Summary of the method: (§1)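 Broth microdilution used an overnight culture diluted to about 5 × 10^5 CFU/mL in non-cation-adjusted Mueller Hinton Broth, mixed with 2-fold serial dilutions of BPP-PNA (16 to 0.5 µM in the dilution plate, not final). Plates were shaken at 37 °C for 18 h with OD595 read every 20 min.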

CRAB strain AC9 = test: BPP-PNA MIC, broth microdilution; format: cell-based, Acinetobacter baumannii; settings: MHB without cation (Oxoid); 37 °C, 18 h
Summary of the method: as §1

CRAB strain AC7 = test: BPP-PNA MIC, broth microdilution; format: cell-based, Acinetobacter baumannii; settings: MHB without cation (Oxoid); 37 °C, 18 h
Summary of the method: as §1

CRAB strain AC3 = test: BPP-PNA MIC, broth microdilution; format: cell-based, Acinetobacter baumannii; settings: MHB without cation (Oxoid); 37 °C, 18 h
Summary of the method: as §1

CRAB strain AC1 = test: BPP-PNA MIC, broth microdilution; format: cell-based, Acinetobacter baumannii; settings: MHB without cation (Oxoid); 37 °C, 18 h
Summary of the method: as §1

CRAB strain AC44 = test: BPP-PNA MIC, broth microdilution; format: cell-based, Acinetobacter baumannii; settings: 37 °C, 18 h
Summary of the method: as §1

CRAB strain AC6 = test: BPP-PNA MIC, broth microdilution; format: cell-based, Acinetobacter baumannii; settings: MHB without cation (Oxoid); 37 °C, 18 h
Summary of the method: as §1

A. baumannii ATCC 19606 [1] = test: BPP-PNA MIC, broth microdilution; format: cell-based, Acinetobacter baumannii; settings: 37 °C, 18 h
Summary of the method: as §1

CRAB strain AC2 = test: BPP-PNA MIC, broth microdilution; format: cell-based, Acinetobacter baumannii; settings: 37 °C, 18 h
Summary of the method: as §1

CRAB strain AC8 = test: BPP-PNA MIC, broth microdilution; format: cell-based, Acinetobacter baumannii; settings: MHB without cation (Oxoid); 37 °C, 18 h
Summary of the method: as §1

A. baumannii ATCC 19606 [2] = test: Envelope disruption, Sytox green uptake; format: cell-based, Acinetobacter baumannii; settings: fluorescence over 90 min, 37 °C
Description: A culture of A. baumannii ATCC 19606 was grown in MHB (195 rpm at 37 °C), until OD595 = 0.4. Then, bacterial cells were pelleted by centrifugation, washed with 0.9% NaCl, and resuspended in MHB at an OD595 = 0.1. Sytox green dye (Invitrogen) was added to the bacterial culture at a concentration of 2 µM followed by incubation for 5 min at 37 °C, followed by addition of the desired amount of BPP–PNA in a 96-well plate format. Fluorescence intensity (λex = 480 nm, λem = 520 nm) was measured every 5 min for 90 min at 37 °C with continuous shaking.

A. baumannii ATCC 19606 [3] = test: Time-kill assay; format: cell-based, Acinetobacter baumannii; settings: ~10^6 CFU/mL, 37 °C, MHB without cation (Sigma)
Description: Bacterial cultures were harvested at 0, 90 min, 3 and 6 h. The content of each well was added to 0.9 mL of MHB and centrifuged at 9300× g for 5 min. Supernatants were removed and the cell pellets were suspended in fresh pre-warmed MHB (100 μL). Tenfold serial dilution were prepared, and 10 μL aliquots were plated on Mueller–Hinton agar and incubated overnight at 37 °C to determine the CFU/mL [17].

E. coli K-12 MG1655 = test: BPP-PNA MIC, broth microdilution; format: cell-based, Escherichia coli; settings: non-target species; MHB without cation (Oxoid)
Description: (§2) MIC values were determined by broth microdilution according to standard protocols with a few modifications. An overnight bacterial cell culture was diluted to approximately 5 × 10^5 CFU/mL in non-cation-adjusted Muller Hinton Broth (MHB). Then, 180 µL bacterial solutions were dispensed into a low-bind 96-well plate (Thermo-Scientific, Roskilde, Denmark) along with 20 µL of BPP-PNA compound (BPP-PNA was serially diluted 2-fold from 16 to 0.5 µM in a 96-well plate). The plate was incubated in a Tecan Genios plate reader (GMI, Minnesota, Ramsey, USA) at 37 °C for 18 h with linear shaking, OD was measured every 20 min at 595 nm. […] The minimum bactericidal concentration (MBC) values were determined by plating 10 µL samples from the wells with no visible turbidity onto Mueller–Hinton agar plates. The MBC is determined the lowest concentration of BPP-PNA that reduces the viability of the initial bacterial inoculum by ≥99.9% (3-log reduction in CFU/mL). A minimum of two independent experiments (biological replicates) of the assay were conducted, and two technical replicates were used in each experiment for each bacterium, compound, and concentration.

CRAB strains = test: BPP-PNA MIC/MBC summarised over the panel of strains; format: cell-based, Acinetobacter baumannii; settings: for bactericidal concentration relative to MIC: CRAB strains; for MIC (complete growth inhibition) over the CRAB strains tested: several A. baumannii strains
Description: as §2

P. aeruginosa (PAO1) = test: BPP-PNA MIC, broth microdilution; format: cell-based, Pseudomonas aeruginosa; settings: non-target species; MHB without cation (Oxoid)
Description: as §2

HepG2 hepatocytes = test: HepG2 cell toxicity (CellTiter-Glo, ATP); format: cell-based; settings: HepG2, 2–4 µM, ATP level
Description: The cell toxicity of selected BPP-PNAs was determined using HepG2 hepatocytes grown in DMEM (low glucose) medium supplemented with 100 U/mL penicillin, 100 µg/mL streptomycin, 1% glutamax, and 10% fetal bovine serum (FBS) (Thermofisher Scientific, Roskilde, Denmark), at 37 °C with 5% CO2. Then, 7000–10,000 cells were seeded in each well of a 96-well plate. After 48 h, the BPP-PNAs were added (six replicates for each concentration), followed by overnight incubation. Total amount of adenosine triphosphate (ATP) was used as a measure of cell viability, according to the CellTiter-Glo luminescent cell viability assay (Promega, Madison, WI, USA) kit. BPP-PNAs concentrations ranged from 2.5 to 20 µM. Potassium dichromate (100 µM) was used as a positive control.

CRAB strain AC46 = test: BPP-PNA MIC, broth microdilution; format: cell-based, Acinetobacter baumannii; settings: 37 °C, 18 h
A. baumannii SSI1104 = test: BPP-PNA MIC, broth microdilution; format: cell-based, Acinetobacter baumannii; settings: 37 °C, 18 h
Summary of the method: as §1

[4] = Oxoid MHB medium, cation adjusted
[5] = Sigma MHB medium without cation

With “H-(KFF)3K-eg1-GAGGCCATGAC-NH2 (antisense; N-terminal (KFF)3K-eg1 peptide, C-terminal amide, backbone not given here, further chemistry not given here) [PNA 5612, anti-ftsZ peptide-PNA conjugate, match, −3 to +8]” the “MIC, AC5” value (CRAB strain AC5) was 4 µM, the “MIC, AC9” value (CRAB strain AC9) was 2 µM and the “MIC, AC7” value (CRAB strain AC7) was 4 µM. For the same substance, the “MIC, AC3” value (CRAB strain AC3) was 4 µM, the “MIC, AC1” value (CRAB strain AC1) was 4 µM and the “MIC, AC44” value (CRAB strain AC44; MHB without cation (Oxoid)) was 8 µM. The “MIC, AC6” value (CRAB strain AC6) was 4 µM, the “MIC, ATCC 19606” value (A. baumannii ATCC 19606 [1]; MHB without cation (Oxoid)) was 4 µM and the “MIC, AC2” value (CRAB strain AC2; MHB without cation (Oxoid)) was 2 µM. The “MIC, AC8” value (CRAB strain AC8) was 8 µM, the “membrane disruption activity (Sytox uptake)” value (“membrane disruption activity” for short) (A. baumannii ATCC 19606 [2]; 8 µM) was “only a minimal effect” and the “membrane disruption activity” value (A. baumannii ATCC 19606 [2]; 2× MIC concentration (4 µM)) was “no indication of membrane disruption activity”. For the same substance, the “CFU reduction in time-kill” value (A. baumannii ATCC 19606 [3]; 4 μM, after 3 h) was “more than three order of magnitude CFU reduction”, the “MIC, E. coli K-12 MG1655” value (E. coli K-12 MG1655) was greater than 16 µM and the “concentration with bactericidal activity against carbapenem-resistant A. baumannii” value (CRAB strains) was 4 µM. The “MIC range against 12 multidrug resistant clinical isolates” value (CRAB strains; 12 CRAB clinical isolates (Table 3)) was 2 to 8 µM, the “match/mismatch ratio of MIC” value (CRAB strains; 12 multidrug resistant clinical isolates, 5612 vs 5615) was 2–8 fold and the “bactericidal concentration relative to MIC” value (CRAB strains) was 1–2 × MIC. For the same substance, the MIC50 (CRAB strains; over the CRAB and ATCC 19606 strains of Table 3, MHB without cation (Oxoid)) was 4 µM, the “MIC (complete growth inhibition) over the CRAB strains tested” value (CRAB strains) was 2 to 8 µM and the “MIC of match PNA lower than mismatch control (mismatch discrimination)” value (CRAB strains; strains of Table 2 (5612 vs 5615) or Table 4 (5656 vs 5822)) was 2–4 fold. For the same substance, the “MIC, P. aeruginosa (PAO1)” value (P. aeruginosa (PAO1)) was greater than 16 µM, the “reduction in cell viability at MIC50 concentration” value (HepG2 hepatocytes) was “no reduction in viability” and the “MIC, AC46” value (CRAB strain AC46; MHB without cation (Oxoid)) was 8 µM. For the same substance, the “MIC, SSI 1104” value (A. baumannii SSI1104; MHB without cation (Oxoid)) was 4 µM.

“H-(KFF)3K-eg1-TGATTTGCCAC-NH2 (antisense; N-terminal (KFF)3K-eg1 peptide, C-terminal amide, backbone not given here, further chemistry not given here) [PNA 5639, anti-acpP peptide-PNA conjugate, match, +1 to +11]” was tested, and the “MIC, AC44” value (CRAB strain AC44; [4]) was 4 µM, the “MIC, AC44” value (CRAB strain AC44; [5]) was 1 µM and the “MIC, ATCC 19606” value (A. baumannii ATCC 19606 [1]; MHB without cation (Oxoid)) was 2 µM. For the same substance, the “MIC, ATCC 19606” value (A. baumannii ATCC 19606 [1]; [4]) was 4 µM, the “MIC, ATCC 19606” value (A. baumannii ATCC 19606 [1]; Sigma MHB medium without cation, ~5 × 10^5 CFU/mL, OD595 < 0.1) was 2 µM and the “MIC, AC2” value (CRAB strain AC2; [4]) was 4 µM. The “MIC, AC2” value (CRAB strain AC2; [5]) was 1 to 2 µM, the “membrane disruption activity” value (A. baumannii ATCC 19606 [2]; 8 µM) was “only a minimal effect” and the “membrane disruption activity” value (A. baumannii ATCC 19606 [2]; 2× MIC concentration (4 µM)) was “no indication of membrane disruption activity”. The “CFU reduction in time-kill” value (A. baumannii ATCC 19606 [3]; 4 or 8 μM, after 3 h treatment) was 4 log, the “MIC, E. coli K-12 MG1655” value (E. coli K-12 MG1655) was greater than 16 µM and the “concentration with bactericidal activity against carbapenem-resistant A. baumannii” value (CRAB strains) was 4 µM. For the same substance, the “bactericidal concentration relative to MIC” value (CRAB strains) was 1–2 × MIC, the “decrease of potency in cation adjusted MHB” value (CRAB strains; cation adjusted MHB against MHB without cation) was 1–4 fold and the “MIC (complete growth inhibition) over the CRAB strains tested” value (CRAB strains) was 1 to 2 µM. For the same substance, the “MIC, P. aeruginosa (PAO1)” value (P. aeruginosa (PAO1)) was greater than 16 µM, the “reduction in cell viability at MIC50 concentration” value (HepG2 hepatocytes) was “no reduction in viability” and the “MIC, AC46” value (CRAB strain AC46; [4]) was 4 µM. The “MIC, AC46” value (CRAB strain AC46; [5]) was 1 µM, the “MIC, SSI 1104” value (A. baumannii SSI1104; MHB without cation (Oxoid)) was 2 µM and the “MIC, SSI 1104” value (A. baumannii SSI1104; [4]) was 4 µM. The “MIC, SSI 1104” value (A. baumannii SSI1104; [5]) was 2 µM.
